Source: the CheMixHub ionic liquid set

Test: xn = mol fraction of the nth substance listed

CCCC[n+]1ccn(C)c1.F[B-](F)(F)F + NC=O
101 kPa, x1 = 1
Conditions | viscosity [mPa·s]
308.15 K | 58.4
318.15 K | 38.7

O + NCC(=O)O + CCCCCCCCCCCCCCCC[n+]1ccccc1.[Cl-]
Conditions | electrical conductivity [S/m]
308.15 K, 101 kPa, x2 = 0, x3 = 0 | 6.7e-05

CC(=O)[O-].CCCC[n+]1ccn(C)c1 + NCCCNCCCN + O
viscosity [mPa·s], 101 kPa
Conditions | 298.15 K | 303.15 K | 308.15 K | 313.15 K | 318.15 K | 323.15 K | 328.15 K | 333.15 K
x1 = 0.03479, x2 = 0 | 2.23 | 2.18 | 2.16 | 2.13 | 1.74 | 1.58 | 1.51 | 1.24
x1 = 0.03897, x2 = 0 | 2.35 | 2.29 | 2.25 | 2.22 | 2.11 | 2.07 | 1.91 | 1.86
x1 = 0.04311, x2 = 0 | 2.66 | 2.63 | 2.56 | 2.49 | 2.29 | 2.26 | 2.02 | 1.97

CC(=O)[O-].CCCC[n+]1ccn(C)c1 + NCCN1CCNCC1 + O
viscosity [mPa·s], 101 kPa
Conditions | 298.15 K | 303.15 K | 308.15 K | 313.15 K | 318.15 K | 323.15 K | 328.15 K | 333.15 K
x1 = 0.03479, x2 = 0 | 2.23 | 2.18 | 2.16 | 2.13 | 1.74 | 1.58 | 1.51 | 1.24
x1 = 0.03897, x2 = 0 | 2.35 | 2.29 | 2.25 | 2.22 | 2.11 | 2.07 | 1.91 | 1.86
x1 = 0.04311, x2 = 0 | 2.66 | 2.63 | 2.56 | 2.49 | 2.29 | 2.26 | 2.02 | 1.97

CCCC[n+]1ccn(C)c1.F[B-](F)(F)F + NCCNCCN
101.3 kPa, x1 = 1
Conditions | viscosity [mPa·s]
298.15 K | 101.1
303.15 K | 81.9
308.15 K | 63.6

CCCC[n+]1ccn(C)c1.F[B-](F)(F)F + NCCO + O
viscosity [mPa·s], 101 kPa
Conditions | 293.15 K | 298.15 K | 303.15 K | 308.15 K | 313.15 K | 318.15 K | 323.15 K | 328.15 K | 333.15 K
x1 = 0.0337, x2 = 0.2024 | 7 | 5.5 | 4.5 | 3.8 | – | – | – | – | –
x1 = 0.0792, x2 = 0.1188 | 6.1 | 4.7 | 4 | 3.4 | – | – | – | – | –
x1 = 0.0977, x2 = 0.2442 | – | – | 7.3 | 6 | 5.1 | 4.3 | 3.7 | – | –
x1 = 0.1701, x2 = 0.3402 | – | – | – | 9 | 7.6 | 6.5 | 5.5 | 4.7 | 4.1

CCCC[n+]1ccn(C)c1.F[B-](F)(F)F + N[C@@H](Cc1c[nH]cn1)C(=O)O + O
viscosity [mPa·s], 100 kPa
Conditions | 293.15 K | 298.15 K | 303.15 K | 308.15 K | 313.15 K | 318.15 K
x2 = 0, x1 = 0.0003603 | 1.03 | 0.917 | 0.835 | 0.751 | 0.693 | 0.638
x2 = 0, x1 = 0.0007203 | 1.062 | 0.951 | 0.868 | 0.789 | 0.736 | 0.681
x2 = 0, x1 = 0.00108 | 1.093 | 0.983 | 0.904 | 0.83 | 0.779 | 0.725
